Reference: paper PMC10681895, “Dasatinib anhydrate containing oral formulation improves variability and bioavailability in humans” (Leukemia, 2023)
Read-outs that look alike come from different tables or passages of the source.

Experiments:
[1] = Intrinsic dissolution rate, rotation disk (Sirius inForm), acetate/phosphate buffer pH 4.5; conditions: for intrinsic dissolution rate: acetate buffer pH 4.5, 37 °C, 100 rpm
[2] = Bioavailability of anhydrous vs monohydrate form of dasatinib by gastric pH (data on file); assay type: in vivo, human
[3] = Drug-drug interaction study with omeprazole (staggered approach), pharmacokinetics; conditions: human, plasma, oral
Protocol: The DDI study was a single-sequence, 2-period, open-label study to investigate the effects of an oral proton pump inhibitor (PPI) omeprazole (Helicid 40 mg capsules, Zentiva, k.s., Czech Republic) administered QD for 5 days on the pharmacokinetics (PK) of T when ingested 2 h prior to the last omeprazole dose (‘staggered approach’). All subjects received T alone in the first period and T under pre-treatment with omeprazole in the second period.
Subjects fasted for at least 10 h prior to dosing and no food was provided until 4 h after the dose, after which a standardized breakfast was served. […]
The plasma concentration-time profiles and pharmacokinetic parameters determined for dasatinib included maximum plasma concentration (Cmax), time to reach the maximum plasma concentration (Tmax), area under the plasma concentration-time curve from time zero to the time of the last quantifiable concentration (AUC0-t, measured by linear trapezoid method), AUC from time zero to infinity (AUC0-inf), terminal elimination half-life (thalf). The pharmacokinetic parameters were determined by non-compartmental methods using Phoenix WinNonlin, version 8.1 (Certara, USA).
Arithmetic mean and standard deviation were summarized for the main pharmacokinetic parameters. For Tmax, median and range were determined. […]

[4] = design: method as in PMID 19395585; conditions: cited from earlier work
[5] = cited from earlier work
[6] = Safety and tolerability, drug-drug interaction study (adverse events, CTC grade); assay type: in vivo, human; conditions: after dasatinib alone
Protocol: Safety was evaluated through assessment of adverse events, clinical and laboratory test results, physical examination, and concomitant medication usage.

[7] = system: non-small-cell lung carcinoma; design: method as in PMID 25246385; conditions: cited from earlier work
[8] = design: method as in PMID 15032311, PMID 15568890; conditions: oral; cited from earlier work
[9] = without PPI or H2-receptor antagonists

SMILES: Cc1nc(Nc2ncc(C(=O)Nc3c(C)cccc3Cl)s2)cc(N2CCN(CCO)CC2)n1 [dasatinib anhydrate, dasatinib]
- fold higher intrinsic dissolution rate compared to monohydrate form ([1]; acetate buffer pH 4.5): more than 80 fold
- intrinsic dissolution rate ([1]; listed as Anhydrous polymorph of dasatinib): 1606 mcg/min/cm^2
- fold difference in aqueous solubility compared with monohydrate form ([1]; pH of 4.5): > 80 fold
- increase of bioavailability compared with monohydrate form ([2]; normogastric population): approximately 20%
- fold higher bioavailability compared with monohydrate form ([2]; subjects with gastric pH >4 (data on file)): about 3.5 fold
- Tmax [3]: 1.25 h
- Tmax ([3]; 110.6 mg): 0.83 h

SMILES: Cc1nc(Nc2ncc(C(=O)Nc3c(C)cccc3Cl)s2)cc(N2CCN(CCO)CC2)n1 [dasatinib monohydrate, dasatinib]
- intrinsic dissolution rate ([1]; listed as monohydrate form): 19 mcg/min/cm^2
- solubility ([4]; pH 2.6): 18400 µg/mL
- solubility ([4]; pH 4.28): 205 µg/mL
- solubility ([4]; pH 6.99): < 1 µg/mL

SMILES: Cc1nc(Nc2ncc(C(=O)Nc3c(C)cccc3Cl)s2)cc(N2CCN(CCO)CC2)n1 [dasatinib]
- decrease of AUC ([5]; co-administration of dexamethasone, according to the label): approximately 25%
- AUC decrease ([5]; co-administration with antacids): ~ 55%
- prevention of dasatinib AUC decrease induced by rabeprazole ([5]; co-administration with betaine hydrochloride): 78%
- AUC decrease ([5]; co-administration with famotidine): ~ 60%
- reduction in dasatinib bioavailability ([5]; dasatinib administered 22 h after the last dose of the PPI): > 40%
- Chills, number of adverse effects ([6]; CTC Grade 1): 1
- Fever, number of adverse effects ([6]; CTC Grade 1): 0
- Headache, number of adverse effects ([6]; CTC Grade 1): 1
- Nausea, number of adverse effects ([6]; CTC Grade 1): 3
- Neck exanthema, number of adverse effects ([6]; CTC Grade 1): 0
- Palmar exanthema, number of adverse effects ([6]; CTC Grade 1): 0
- Vomiting, number of adverse effects ([6]; CTC Grade 1): 1
- Weakness, number of adverse effects ([6]; CTC Grade 1): 2
- Chills, number of adverse effects ([6]; CTC Grade 2): 0
- Fever, number of adverse effects ([6]; CTC Grade 2): 1
- Headache, number of adverse effects ([6]; CTC Grade 2): 6
- Nausea, number of adverse effects ([6]; CTC Grade 2): 1
- Neck exanthema, number of adverse effects ([6]; CTC Grade 2): 1
- Palmar exanthema, number of adverse effects ([6]; CTC Grade 2): 1
- Vomiting, number of adverse effects ([6]; CTC Grade 2): 0
- Weakness, number of adverse effects ([6]; CTC Grade 2): 0

SMILES: C#Cc1cccc(Nc2ncnc3cc(OCCOC)c(OCCOC)cc23)c1 [erlotinib]
- median progression free survival ([7]; with co-administration of PPI or H2-receptor antagonists, p < 0.001): 1.4 months
- median overall survival ([7]; with co-administration of PPI or H2-receptor antagonists, p = 0.003): 12.9 months
- median overall survival [7, 9]: 16.8 months
- median progression free survival [7, 9]: 2.3 months

SMILES: O=C1NC(=O)C(c2ccccc2)(c2ccccc2)N1 [phenytoin]
- absolute bioavailability [8]: > 90%
